For experiment [1], the target named is T1, Tyrosine-protein phosphatase non-receptor type 5 (Homo sapiens, UniProt P54829).
T1 sequence (P54829 whole entry): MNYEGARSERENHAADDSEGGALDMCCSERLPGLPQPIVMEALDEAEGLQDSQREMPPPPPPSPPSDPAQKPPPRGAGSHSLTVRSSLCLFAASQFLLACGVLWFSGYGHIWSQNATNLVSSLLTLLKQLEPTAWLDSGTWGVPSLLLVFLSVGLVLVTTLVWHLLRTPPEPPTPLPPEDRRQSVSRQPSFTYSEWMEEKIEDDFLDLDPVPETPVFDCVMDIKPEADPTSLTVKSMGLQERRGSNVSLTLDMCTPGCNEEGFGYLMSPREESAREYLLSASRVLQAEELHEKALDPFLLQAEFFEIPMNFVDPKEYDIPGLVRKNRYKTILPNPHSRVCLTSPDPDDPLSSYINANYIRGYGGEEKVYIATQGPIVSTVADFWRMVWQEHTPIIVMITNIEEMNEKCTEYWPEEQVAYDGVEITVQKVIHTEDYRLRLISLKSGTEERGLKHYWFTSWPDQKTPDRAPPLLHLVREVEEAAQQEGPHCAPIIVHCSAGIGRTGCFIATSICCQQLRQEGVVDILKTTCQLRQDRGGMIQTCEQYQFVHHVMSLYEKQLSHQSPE
The experiment in a line: Inhibition of STEP (unknown origin) in absence of GSH by p-nitrophenyl phosphate hydrolysis assay.

Experiment [2] concerns the target T2, Tyrosine-protein phosphatase non-receptor type 5 (Homo sapiens) (UniProt P54829).
T2 sequence (whole entry): T1 sequence (P54829 whole entry)
Description: Inhibition of STEP (unknown origin) assessed as second-order rate constant for enzyme inactivation in absence of GSH by p-nitrophenyl phosphate hydrolysis assay

The target of experiment [3] is T1, Tyrosine-protein phosphatase non-receptor type 5. The experiment is described as follows: Inhibition of STEP (unknown origin) pre-incubated for 10 mins before addition of p-nitrophenyl phosphate substrate in absence of GSH.
Experiment [4] has the same target. The experiment in a line: Inhibition of STEP (unknown origin) pre-incubated for 10 mins before addition of p-nitrophenyl phosphate substrate in presence of 1 mM GSH.

Each structure is given as a SMILES string.

Broadly, the Ki is a dissociation constant, usually derived from enzyme kinetics or from competition with a known ligand. Higher therefore signals weaker binding. As usually defined, the IC50 is the concentration that inhibits the measured activity by half.

Consider `O=C(Nc1cc(C(F)(F)F)cc2c1SSSSS2)C(F)(F)F`, for which, in experiment [1], the Ki was found to be 235 nM. The same compound displayed a Kinact in experiment [2] of 0.0378 s⁻¹. Also, the half-inhibitory concentration (IC50) came to 24 nM in experiment [3] and 15000 nM in experiment [4].

The values above are taken from ChEMBL document CHEMBL3397020, “Synthesis of benzopentathiepin analogs and their evaluation as inhibitors of the phosphatase STEP” (Bioorg Med Chem Lett, 2015).
